Test results reported in the NIST ThermoML archive (doi:10.1021/je0341413).

Tests used:
[1] = xn = mol fraction of the nth substance listed; details: 101.3 kPa, Liquid
[2] = Liquid; for viscosity: 101.3 kPa; for mass density: 101.33 kPa

CCOC(=O)OCC [diethyl carbonate] + CCC(C)O
[1]
Details | viscosity [mPa·s]
293.15 K, x1 = 0.0512 | 2.892
293.15 K, x1 = 0.1031 | 2.341
293.15 K, x1 = 0.2021 | 1.652
293.15 K, x1 = 0.2997 | 1.289
293.15 K, x1 = 0.4023 | 1.092
293.15 K, x1 = 0.5115 | 0.979
293.15 K, x1 = 0.607 | 0.91
293.15 K, x1 = 0.707 | 0.861
293.15 K, x1 = 0.8038 | 0.825
293.15 K, x1 = 0.9089 | 0.804
293.15 K, x1 = 0.9524 | 0.803
293.15 K, x1 = 1 | 0.795
298.15 K, x1 = 0.0509 | 2.485
298.15 K, x1 = 0.101 | 2.001
298.15 K, x1 = 0.202 | 1.379
298.15 K, x1 = 0.3002 | 1.071
298.15 K, x1 = 0.404 | 0.937
298.15 K, x1 = 0.5003 | 0.888
298.15 K, x1 = 0.6008 | 0.858
298.15 K, x1 = 0.6963 | 0.813
298.15 K, x1 = 0.7987 | 0.752
298.15 K, x1 = 0.8999 | 0.709
298.15 K, x1 = 0.9466 | 0.712
298.15 K, x1 = 1 | 0.749
303.15 K, x1 = 0.0517 | 2.023
303.15 K, x1 = 0.1132 | 1.623
303.15 K, x1 = 0.2267 | 1.211
303.15 K, x1 = 0.3316 | 1.021
303.15 K, x1 = 0.4467 | 0.89
303.15 K, x1 = 0.5422 | 0.809
303.15 K, x1 = 0.6426 | 0.739
303.15 K, x1 = 0.7416 | 0.698
303.15 K, x1 = 0.8281 | 0.684
303.15 K, x1 = 0.9196 | 0.691
303.15 K, x1 = 0.9494 | 0.697
303.15 K, x1 = 1 | 0.699
313.15 K, x1 = 0.0511 | 1.503
313.15 K, x1 = 0.1026 | 1.28
313.15 K, x1 = 0.1988 | 0.996
313.15 K, x1 = 0.2955 | 0.83
313.15 K, x1 = 0.4041 | 0.738
313.15 K, x1 = 0.5084 | 0.69
313.15 K, x1 = 0.5983 | 0.662
313.15 K, x1 = 0.6988 | 0.636
313.15 K, x1 = 0.8034 | 0.61
313.15 K, x1 = 0.9022 | 0.601
313.15 K, x1 = 0.9523 | 0.606
313.15 K, x1 = 1 | 0.623

CCOC(=O)OCC [diethyl carbonate] + CC(C)O
[1]
Details | viscosity [mPa·s]
293.15 K, x1 = 0.0502 | 1.973
293.15 K, x1 = 0.1001 | 1.67
293.15 K, x1 = 0.203 | 1.27
293.15 K, x1 = 0.3012 | 1.073
293.15 K, x1 = 0.3954 | 0.962
293.15 K, x1 = 0.5021 | 0.886
293.15 K, x1 = 0.6035 | 0.841
293.15 K, x1 = 0.6976 | 0.811
293.15 K, x1 = 0.8048 | 0.794
293.15 K, x1 = 0.9129 | 0.796
293.15 K, x1 = 0.9529 | 0.799
293.15 K, x1 = 1 | 0.795
298.15 K, x1 = 0.049 | 1.766
298.15 K, x1 = 0.0987 | 1.501
298.15 K, x1 = 0.1978 | 1.135
298.15 K, x1 = 0.2945 | 0.94
298.15 K, x1 = 0.3925 | 0.836
298.15 K, x1 = 0.4925 | 0.788
298.15 K, x1 = 0.5939 | 0.763
298.15 K, x1 = 0.7004 | 0.74
298.15 K, x1 = 0.7979 | 0.719
298.15 K, x1 = 0.8967 | 0.717
298.15 K, x1 = 0.9504 | 0.726
298.15 K, x1 = 1 | 0.749
303.15 K, x1 = 0.0522 | 1.468
303.15 K, x1 = 0.099 | 1.277
303.15 K, x1 = 0.1944 | 1.009
303.15 K, x1 = 0.2913 | 0.864
303.15 K, x1 = 0.392 | 0.777
303.15 K, x1 = 0.4763 | 0.733
303.15 K, x1 = 0.5883 | 0.702
303.15 K, x1 = 0.6972 | 0.683
303.15 K, x1 = 0.7854 | 0.68
303.15 K, x1 = 0.889 | 0.684
303.15 K, x1 = 0.9488 | 0.69
303.15 K, x1 = 1 | 0.699
313.15 K, x1 = 0.0506 | 1.148
313.15 K, x1 = 0.0997 | 1.011
313.15 K, x1 = 0.2016 | 0.821
313.15 K, x1 = 0.303 | 0.71
313.15 K, x1 = 0.4008 | 0.661
313.15 K, x1 = 0.4969 | 0.634
313.15 K, x1 = 0.599 | 0.617
313.15 K, x1 = 0.7007 | 0.604
313.15 K, x1 = 0.8011 | 0.594
313.15 K, x1 = 0.903 | 0.596
313.15 K, x1 = 0.9511 | 0.605
313.15 K, x1 = 1 | 0.623

CCC(C)O (stereo not given) [butan-2-ol] + CCOC(=O)OCC
[1], x2 = 0
Details | viscosity [mPa·s]
293.15 K | 3.619
298.15 K | 3.115
303.15 K | 2.503
313.15 K | 1.784

CC(C)O [propan-2-ol]
[2]
Details | mass density [kg/m3] | viscosity [mPa·s]
293.15 K | – | 2.386
298.15 K | 780.9 | 2.098
303.15 K | – | 1.763
313.15 K | – | 1.325

CCOC(=O)OCC [diethyl carbonate]
[2]
Details | mass density [kg/m3] | viscosity [mPa·s]
293.15 K | – | 0.795
298.15 K | 969.1 | 0.749
303.15 K | – | 0.699
313.15 K | – | 0.623

CCO [ethanol]
[2]
Details | mass density [kg/m3] | viscosity [mPa·s]
293.15 K | – | 1.194
298.15 K | 785 | 1.105
303.15 K | – | 0.972
313.15 K | – | 0.826

CCOC(=O)OCC [diethyl carbonate] + CCCCO
[1]
Details | viscosity [mPa·s]
293.15 K, x1 = 0.051 | 2.5
293.15 K, x1 = 0.1027 | 2.148
293.15 K, x1 = 0.2008 | 1.672
293.15 K, x1 = 0.2978 | 1.376
293.15 K, x1 = 0.4026 | 1.173
293.15 K, x1 = 0.5079 | 1.031
293.15 K, x1 = 0.6014 | 0.944
293.15 K, x1 = 0.7033 | 0.878
293.15 K, x1 = 0.7986 | 0.841
293.15 K, x1 = 0.9031 | 0.814
293.15 K, x1 = 0.951 | 0.81
293.15 K, x1 = 1 | 0.795
298.15 K, x1 = 0.0519 | 2.203
298.15 K, x1 = 0.0993 | 1.899
298.15 K, x1 = 0.1996 | 1.445
298.15 K, x1 = 0.2923 | 1.195
298.15 K, x1 = 0.3989 | 1.03
298.15 K, x1 = 0.5017 | 0.939
298.15 K, x1 = 0.6016 | 0.874
298.15 K, x1 = 0.7043 | 0.815
298.15 K, x1 = 0.8002 | 0.766
298.15 K, x1 = 0.8968 | 0.736
298.15 K, x1 = 0.9471 | 0.734
298.15 K, x1 = 1 | 0.749
303.15 K, x1 = 0.0508 | 1.905
303.15 K, x1 = 0.1004 | 1.642
303.15 K, x1 = 0.2016 | 1.3
303.15 K, x1 = 0.3 | 1.101
303.15 K, x1 = 0.3917 | 0.977
303.15 K, x1 = 0.5032 | 0.87
303.15 K, x1 = 0.597 | 0.794
303.15 K, x1 = 0.7099 | 0.729
303.15 K, x1 = 0.8216 | 0.699
303.15 K, x1 = 0.9035 | 0.697
303.15 K, x1 = 0.9488 | 0.697
303.15 K, x1 = 1 | 0.699
313.15 K, x1 = 0.0506 | 1.535
313.15 K, x1 = 0.1007 | 1.356
313.15 K, x1 = 0.2005 | 1.09
313.15 K, x1 = 0.2975 | 0.926
313.15 K, x1 = 0.4122 | 0.802
313.15 K, x1 = 0.5035 | 0.741
313.15 K, x1 = 0.6084 | 0.691
313.15 K, x1 = 0.7044 | 0.656
313.15 K, x1 = 0.8055 | 0.634
313.15 K, x1 = 0.9016 | 0.618
313.15 K, x1 = 0.9486 | 0.617
313.15 K, x1 = 1 | 0.623

CCC(C)O (stereo not given) [butan-2-ol]
[2]
Details | mass density [kg/m3] | viscosity [mPa·s]
293.15 K | – | 3.619
298.15 K | 802.4 | 3.115
303.15 K | – | 2.503
313.15 K | – | 1.784

CCO [ethanol] + CCOC(=O)OCC
[1], x2 = 0
Details | viscosity [mPa·s]
293.15 K | 1.194
298.15 K | 1.105
303.15 K | 0.972
313.15 K | 0.826

CCOC(=O)OCC [diethyl carbonate] + CO
[1]
Details | viscosity [mPa·s]
293.15 K, x1 = 0.0513 | 0.592
293.15 K, x1 = 0.1002 | 0.596
293.15 K, x1 = 0.1972 | 0.608
293.15 K, x1 = 0.2839 | 0.623
293.15 K, x1 = 0.4038 | 0.642
293.15 K, x1 = 0.5 | 0.657
293.15 K, x1 = 0.5933 | 0.675
293.15 K, x1 = 0.6417 | 0.685
293.15 K, x1 = 0.7996 | 0.722
293.15 K, x1 = 0.9014 | 0.75
293.15 K, x1 = 0.9709 | 0.782
293.15 K, x1 = 1 | 0.795
298.15 K, x1 = 0.0496 | 0.556
298.15 K, x1 = 0.0996 | 0.558
298.15 K, x1 = 0.1985 | 0.574
298.15 K, x1 = 0.2944 | 0.588
298.15 K, x1 = 0.4014 | 0.603
298.15 K, x1 = 0.4975 | 0.615
298.15 K, x1 = 0.6068 | 0.637
298.15 K, x1 = 0.7087 | 0.658
298.15 K, x1 = 0.8365 | 0.688
298.15 K, x1 = 0.9091 | 0.71
298.15 K, x1 = 0.9598 | 0.731
298.15 K, x1 = 1 | 0.749
303.15 K, x1 = 0.049 | 0.518
303.15 K, x1 = 0.0966 | 0.524
303.15 K, x1 = 0.1958 | 0.537
303.15 K, x1 = 0.2824 | 0.548
303.15 K, x1 = 0.3914 | 0.563
303.15 K, x1 = 0.4936 | 0.578
303.15 K, x1 = 0.581 | 0.592
303.15 K, x1 = 0.6945 | 0.612
303.15 K, x1 = 0.7349 | 0.62
303.15 K, x1 = 0.8512 | 0.645
303.15 K, x1 = 0.9214 | 0.663
303.15 K, x1 = 1 | 0.699
313.15 K, x1 = 0.0509 | 0.456
313.15 K, x1 = 0.0999 | 0.46
313.15 K, x1 = 0.2009 | 0.475
313.15 K, x1 = 0.2981 | 0.49
313.15 K, x1 = 0.4009 | 0.505
313.15 K, x1 = 0.5056 | 0.524
313.15 K, x1 = 0.6062 | 0.543
313.15 K, x1 = 0.7033 | 0.561
313.15 K, x1 = 0.8055 | 0.584
313.15 K, x1 = 0.902 | 0.603
313.15 K, x1 = 0.9448 | 0.61
313.15 K, x1 = 1 | 0.623
